{"source": "patent US9463216B2", "about": "(priority 2012, dated 2016)", "key": {"[1]": {"tested_on": "PA uptake by J774 macrophages, ANTXR2-expressing (CCHO) and ANTXR2-null (PR230) chinese hamster ovary cells", "assay_type": "cell-based, chinese hamster (CHO cells)"}, "PA [2]": {"tested_on": "PA", "assay_type": "biochemical, B. anthracis"}, "PA [3]": {"biological_target": "PA (Bacillus anthracis, UniProt P13423)", "sequence (P13423 30-764 limits assumed)": "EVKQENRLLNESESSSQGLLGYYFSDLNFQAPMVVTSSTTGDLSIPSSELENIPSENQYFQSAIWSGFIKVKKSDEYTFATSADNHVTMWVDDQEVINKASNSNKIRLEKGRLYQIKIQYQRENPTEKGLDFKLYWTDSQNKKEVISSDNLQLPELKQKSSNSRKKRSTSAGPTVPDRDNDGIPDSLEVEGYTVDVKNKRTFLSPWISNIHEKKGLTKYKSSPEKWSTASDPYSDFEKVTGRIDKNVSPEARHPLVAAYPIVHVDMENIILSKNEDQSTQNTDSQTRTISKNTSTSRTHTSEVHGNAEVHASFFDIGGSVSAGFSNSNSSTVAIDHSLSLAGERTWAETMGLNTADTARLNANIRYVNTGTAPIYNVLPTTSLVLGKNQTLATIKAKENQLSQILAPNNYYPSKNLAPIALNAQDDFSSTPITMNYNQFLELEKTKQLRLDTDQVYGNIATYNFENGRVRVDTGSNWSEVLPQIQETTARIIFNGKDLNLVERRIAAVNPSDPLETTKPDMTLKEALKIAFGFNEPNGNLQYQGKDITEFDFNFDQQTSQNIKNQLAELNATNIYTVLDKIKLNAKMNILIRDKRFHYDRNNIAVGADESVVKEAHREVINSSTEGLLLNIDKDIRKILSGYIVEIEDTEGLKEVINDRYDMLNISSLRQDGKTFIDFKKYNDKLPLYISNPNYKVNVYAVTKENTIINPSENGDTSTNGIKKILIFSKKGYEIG", "assay_type": "binding, B. anthracis"}, "[4]": {"tested_on": "J774 macrophages and PR230 cells", "assay_type": "cell-based, chinese hamster (PR230 cells)"}, "recombinant LT (PA + LF)": {"biological_target": "recombinant LT (PA + LF) (Bacillus anthracis, UniProt P13423)", "sequence (P13423 30-764 limits assumed)": "as above", "parameters": "species or system BALB/cJ mice", "conditions": "mouse, in vivo"}, "lethal toxin (PA + LF)": {"biological_target": "lethal toxin (PA + LF) (Bacillus anthracis, UniProt P13423)", "sequence (P13423 30-764 limits assumed)": "as above"}}, "data": [{"compound": "γ-DPGA [Compound 2]", "values": [{"measurement": "effect on cell uptake of PA", "setting": "[1]", "result": "prevent proper cell uptake"}, {"measurement": "stimulation of PA internalization after pretreatment with Cap D", "setting": "[1]", "result": "eliminates the stimulation of PA internalization"}, {"measurement": "effect on PA-binding to ANTXR2 or LF, PA oligomerization, or channel formation in vitro", "setting": "PA [2]", "result": "do not affect"}, {"measurement": "form complexes with PA", "setting": "PA [3]", "result": "can form complexes with PA"}, {"measurement": "formation of co-complexes with PA after pretreatment with Cap D", "setting": "PA [3]", "result": "prevents formation of co-complexes with PA"}, {"measurement": "binding to J774 macrophages and PR230 cells", "setting": "[4]", "result": "equal affinity"}, {"measurement": "binding to Pronase-treated PR230 cells", "setting": "[4]", "result": "significantly reduced"}, {"measurement": "inhibitory activity after treatment with Cap D", "setting": "recombinant LT (PA + LF)", "result": "abolished the inhibitory activity"}, {"measurement": "protection of mice from LT", "setting": "recombinant LT (PA + LF)", "result": "completely protected"}, {"measurement": "LT inhibitory activity of metal ion chelates", "setting": "lethal toxin (PA + LF)", "result": "only the Fe(III) chelate had LT inhibitory activity"}, {"measurement": "inhibit LT-mediated cytolysis in bone marrow macrophage cells", "setting": "lethal toxin (PA + LF)", "result": "could inhibit"}, {"measurement": "inhibition of PA oligomers", "setting": "lethal toxin (PA + LF)", "result": "equally inhibited"}]}, {"compound": "bovine serum albumin [reference compound]", "values": [{"measurement": "protection of mice from LT", "setting": "recombinant LT (PA + LF)", "result": "did not protect mice from LT"}]}, {"compound": "Fe(III) [reference compound]", "values": [{"measurement": "concentration at which Fe(III) alone may inhibit LT", "setting": "lethal toxin (PA + LF)", "result": 10, "unit": "mM"}, {"measurement": "inhibitory Fe(III) concentration relative to concentrations effective in the Fe(III) co-complexes of compounds 1, 2, and 3", "setting": "lethal toxin (PA + LF)", "result": "10^3-10^4 fold"}, {"measurement": "inhibitory activity of Fe(III) alone", "setting": "lethal toxin (PA + LF)", "result": "did not possess inhibitory activity"}]}, {"compound": "N[C@@H](CCC(=O)O)C(=O)O", "note": "[L-Glu, reference compound]", "values": [{"measurement": "protection of mice from LT", "setting": "recombinant LT (PA + LF)", "result": "did not protect mice from LT"}]}, {"compound": "γ-DLPGA [Compound 1]", "values": [{"measurement": "effect on cell uptake of PA", "setting": "[1]", "result": "prevent proper cell uptake"}, {"measurement": "effect on PA-binding to ANTXR2 or LF, PA oligomerization, or channel formation in vitro", "setting": "PA [2]", "result": "do not affect"}, {"measurement": "affinity for PA, higher than compound 2", "setting": "PA [3]", "result": 10, "unit": "fold"}, {"measurement": "form complexes with PA", "setting": "PA [3]", "result": "can form complexes with PA"}, {"measurement": "protection of mice from LT", "setting": "recombinant LT (PA + LF)", "result": "completely protected"}, {"measurement": "LT inhibitory activity of metal ion chelates", "setting": "lethal toxin (PA + LF)", "result": "only the Fe(III) chelate had LT inhibitory activity"}, {"measurement": "inhibit LT-mediated cytolysis in bone marrow macrophage cells", "setting": "lethal toxin (PA + LF)", "result": "could inhibit"}, {"measurement": "inhibition of PA oligomers", "setting": "lethal toxin (PA + LF)", "result": "equally inhibited"}]}]}
